# Assays:
# [1] = tested on: Normal Human Dermal Fibroblasts (NHDF); experiment: hMCP-1 N1pE/hMCP-1 ratio by ELISA in OSM+IL1β stimulated NHDF treated with QCI; format: cell-based; conditions: 10 μM QCI
# Method: To capture human MCP-1, commercially available polyclonal antiserum goat anti-hMCP1-AF (R&D Systems, Minneapolis, USA) as capture antibody which specifically binds human MCP-1 was diluted in PBS to 250 ng/ml and immobilized in polystyrene 96-well microtitre plates overnight at 4° C. Thereafter, blocking occurred for 2 hours at room temperature with ELISA Blocker (Thermo Fisher Scientific, Waltham, USA). For preparation of the standard curve recombinant hMCP-1 was incubated with recombinant human Glutaminyl Cyclase (QC) in order to obtain hMCP-1 N1pE. The recombinant hMCP-1 N1pE standard peptide was serially diluted with ELISA Blocker from 1000 pg/ml down to 15.63 pg/ml and added to the wells in duplicate. Two wells filled with ELISA Blocker represent the standard curve value 0 pg/ml. After an incubation period of 2 hours at room temperature, plates were washed at least three times with TBS-T. For detection of hMCP-1 N1pE, the MCP-1 N1pE antibody clone 348-2C9 together with HRP-conjugated anti mouse antibody were both diluted in blocking buffer to final concentrations of 500 ng/ml. For detection of hMCP-1, the antibody mouse anti hMCP-1 (Peprotech, Hamburg, Germany) together with HRP-conjugated anti mouse antibody were also both diluted in blocking buffer to final concentrations of 500 ng/ml. The detection antibody/conjugate solutions were incubated for 2 hours at room temperature. […] Absorption at 450/540 nm was determined by a Tecan Sunrise plate reader.
# Quantitative detection of hMCP-1 and hMCP-1 N1pE occurred according to the protocol in […]. […] The cell culture supernatants were analyzed at different time points in order to examine time dependency of hMCP-1 and hMCP-1 N1pE secretion. […]
# NHDF have been stimulated with 10 ng/ml OSM, IL1β and simultaneously treated with or without 10 μM QCI for 6 days. […] In order to examine the influence of QCI on hMCP-1 and hMCP-1 N1pE level, the cell culture supernatants were analyzed at different time points according to the ELISA protocol in Example 7.
# [2] = tested on: RAW 264.7 cells; experiment: Western Blot of mMCP-1 N1pE and total mMCP-1 in RAW 264.7 cell culture supernatant; format: cell-based, mouse; conditions: RAW 264.7 supernatants, different QCI
# Method: Stimulation of RAW 264.7 and inhibitor application occurred according to Example 9. For Western Blot analysis, proteins of cell culture supernatants were separated by application to a SDS gel electrophoresis. Separated proteins were electrically transferred to nitrocellulose membranes. Membranes were blocked for one hour with TBST-M (=TBST+5% skimmed milk) at room temperature with gentle shaking. Antibody incubation occurred over night at 4° C. on a rocking platform with the detection antibody for total mMCP-1 (Rat anti mouse MCP-1, R&D Systems) diluted to 1 μg/ml in equal volumes of TBST-M or the detection antibody for mMCP-1 N1pE (clone 332-4B8), respectively. Secondary anti-mouse and anti-rat antibody conjugated with horseradish peroxidase were used for signal detection, following standard procedures.
# [3] = tested on: thioglycollate-induced peritonitis; experiment: mMCP-1 N1pE/mMCP-1 ratio and monocyte infiltration in mice treated with thioglycollate and QCI; format: in vivo, mouse; conditions: QCI intraperitoneal 30 minutes before thioglycollate
# Method: To capture mouse MCP-1, commercially available polyclonal antiserum rabbit anti mJE (Peprotech, Hamburg, Germany) as capture antibody which specifically binds mouse MCP-1 was diluted in PBS to 500 ng/ml and immobilized in polystyrene 96-well microtitre plates over 4-7 nights at 4° C. Thereafter, blocking occurred for 2 hours at room temperature with ELISA Blocker (Thermo Fisher Scientific, Waltham, USA). For preparation of the standard curve recombinant mMCP-1 was incubated with mouse Glutaminyl Cyclase (QC) in order to obtain mMCP-1 N1pE. The recombinant mMCP-1 N1pE standard peptide was serially diluted with ELISA Blocker from 1950 pg/ml down to 19.5 pg/ml and added to the wells in duplicate. Two wells filled with ELISA Blocker represent the standard curve value 0 pg/ml. After an incubation period of 2 hours at room temperature, plates were washed at least three times with TBS-T. For detection of mMCP-1 N1pE, the MCP-1 N1pE antibody clone 348-2C9 together with HRP-conjugated anti mouse antibody were both diluted in ELISA Blocker to final concentrations of 500 ng/ml. […] Absorption at 450/540 nm was determined by a Tecan Sunrise plate reader. […]
# Thioglycollate was injected intraperitoneal in mice. […] Infiltrated monocytes were counted by FACS analysis via double staining of 7/4 and Ly6G antigens.
smiles,measurement,setting,value
"COc1ccc(NC(=S)NCCCn2ccnc2)cc1OC.Cl [QCI, 1-(3-(1H-imidazol-1-yl)propyl)-3-(3,4-dimethoxyphenyl)thiourea hydrochloride]",hMCP-1 N1pE level after 1-2 days of OSM+IL1β stimulation,[1]; 1-2 days,below the limit of quantitation
same,hMCP-1 N1pE level,[1]; OSM+IL1β,decreased
same,ratio of hMCP-1 N1pE/hMCP-1,[1]; OSM+IL1β,"about 0,35"
same,Western Blot signal of mMCP-1 N1pE,[2]; FIG. 22A,concentration dependent
same,Western Blot signal intensity of total mMCP-1,[2]; FIG. 22B,no change
same,number of infiltrating monocytes to the peritoneum,"[3]; FACS, FIG. 23B",decreased number
same,mMCP-1 N1pE/mMCP-1 ratio in peritoneal lavage fluid,[3]; lavage after 4 h,dose dependent reduction
